Measured values taken from ChEMBL document CHEMBL4507258 (2021).

What was measured:
[1] = target: Beta-2 adrenergic receptor (Homo sapiens) (UniProt P07550); details: Compound concentration 10.0 uM
[2] = target: Alpha-2C adrenergic receptor (Homo sapiens, UniProt P18825); experiment: GPCRScan assay: inhibition of Alpha2C; design: radioligand conc. used [nm] 0.5 – 1.0, parental cells stable MDCK
[3] = target: 5-hydroxytryptamine receptor 2C (Homo sapiens) (UniProt P28335); details: Compound concentration 10.0 uM
[4] = target: 5-hydroxytryptamine receptor 1A (Homo sapiens, UniProt P08908); experiment: GPCRScan assay: inhibition of 5-HT1A; design: radioligand conc. used [nm] 0.5 – 1.0, parental cells stable CHO
[5] = target: Alpha-2A adrenergic receptor (Homo sapiens) (UniProt P08913); details: Compound concentration 10.0 uM
[6] = target: Kappa-type opioid receptor (Homo sapiens, UniProt P41145); experiment: GPCRScan assay: inhibition of KOR; design: radioligand conc. used [nm] 0.6 – 1.2, parental cells stable HEK
Sequence of Kappa-type opioid receptor (P41145 whole entry): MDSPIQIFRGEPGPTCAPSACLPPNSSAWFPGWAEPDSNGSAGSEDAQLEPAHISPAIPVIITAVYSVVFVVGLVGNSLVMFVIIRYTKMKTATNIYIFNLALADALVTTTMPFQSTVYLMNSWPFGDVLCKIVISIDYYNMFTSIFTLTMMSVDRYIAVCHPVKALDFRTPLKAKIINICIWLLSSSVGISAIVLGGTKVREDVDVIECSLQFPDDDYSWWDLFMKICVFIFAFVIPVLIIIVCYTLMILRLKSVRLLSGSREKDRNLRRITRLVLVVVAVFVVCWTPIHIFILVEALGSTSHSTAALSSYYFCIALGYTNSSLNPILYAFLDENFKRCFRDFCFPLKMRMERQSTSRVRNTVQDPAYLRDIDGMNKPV

[7] = target: T1, Mu-type opioid receptor (Homo sapiens, UniProt P35372); experiment: GPCRScan assay: inhibition of MOR; design: radioligand conc. used [nm] 1.0 – 2.0, parental cells stable HEK
T1 sequence (P35372 whole entry): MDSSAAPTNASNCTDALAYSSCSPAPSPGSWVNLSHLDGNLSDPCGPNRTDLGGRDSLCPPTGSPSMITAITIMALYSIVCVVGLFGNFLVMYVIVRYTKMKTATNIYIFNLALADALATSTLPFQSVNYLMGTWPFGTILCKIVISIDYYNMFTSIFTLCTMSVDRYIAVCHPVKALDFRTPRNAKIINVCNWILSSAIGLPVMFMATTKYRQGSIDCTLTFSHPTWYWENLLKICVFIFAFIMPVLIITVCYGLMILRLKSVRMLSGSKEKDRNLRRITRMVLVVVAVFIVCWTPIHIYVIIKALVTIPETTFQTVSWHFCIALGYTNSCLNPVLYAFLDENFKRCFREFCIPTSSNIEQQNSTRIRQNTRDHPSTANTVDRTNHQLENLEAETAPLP

[8] = target: Sodium-dependent noradrenaline transporter (Homo sapiens) (UniProt P23975); details: Compound concentration 10.0 uM
Sequence of Sodium-dependent noradrenaline transporter (Homo sapiens) (P23975 whole entry): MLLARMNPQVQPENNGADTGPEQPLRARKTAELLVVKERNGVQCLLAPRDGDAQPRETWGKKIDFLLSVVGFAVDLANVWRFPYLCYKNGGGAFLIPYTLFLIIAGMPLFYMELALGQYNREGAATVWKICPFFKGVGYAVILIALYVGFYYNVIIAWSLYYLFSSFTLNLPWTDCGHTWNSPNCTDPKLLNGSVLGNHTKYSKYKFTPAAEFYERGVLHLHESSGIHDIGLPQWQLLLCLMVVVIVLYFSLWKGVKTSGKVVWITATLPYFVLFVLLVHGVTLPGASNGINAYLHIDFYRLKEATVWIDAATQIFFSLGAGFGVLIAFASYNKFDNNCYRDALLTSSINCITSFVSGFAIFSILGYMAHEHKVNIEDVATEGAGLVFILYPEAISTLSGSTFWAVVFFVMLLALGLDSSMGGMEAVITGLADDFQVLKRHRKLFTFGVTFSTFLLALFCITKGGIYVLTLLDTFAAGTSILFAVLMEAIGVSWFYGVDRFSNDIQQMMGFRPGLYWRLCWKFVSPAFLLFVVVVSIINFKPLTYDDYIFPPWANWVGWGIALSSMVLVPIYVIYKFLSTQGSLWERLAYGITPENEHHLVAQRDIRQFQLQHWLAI

[9] = target: Muscarinic acetylcholine receptor M5 (Homo sapiens) (UniProt P08912); details: Compound concentration 10.0 uM
[10] = target: Histamine H1 receptor (Homo sapiens, UniProt P35367); experiment: GPCRScan assay: inhibition of H1; design: radioligand conc. used [nm] 0.6 – 2.0, parental cells stable HEK
[11] = target: Cannabinoid receptor 2 (Homo sapiens) (UniProt P34972); experiment: Cannabinoid CB2 receptor (h) CEREP ligand profiling; details: Compound concentration 10.0 uM
[12] = target: Adrenergic receptor alpha-2 (Homo sapiens) (UniProt P08913+P18825+P18089); experiment: alpha2-adrenoceptor (non-selective) CEREP ligand profiling; assay type: protein assay; details: Compound concentration 10.0 uM
[13] = target: Calcium/calmodulin-dependent protein kinase type 1B (Homo sapiens, UniProt Q6P2M8); experiment: Inhibition of PNCK at compound concentration of 10.0 uM using the ScanMax (DiscoverX)
[14] = target: GABA-A receptor; anion channel (Homo sapiens) (UniProt P14867+P47870+P18507+P28472+P48169+Q99928+Q9UN88+P34903+O00591+O14764+Q8N1C3+P18505+P78334+P47869+P31644+Q16445); experiment: Benzodiazepine (central) CEREP ligand profiling; assay type: protein-complex assay; details: Compound concentration 10.0 uM
[15] = target: Adenosine receptor A1 (Homo sapiens) (UniProt P30542); experiment: Adenosine A1 receptor (h) CEREP ligand profiling; details: Compound concentration 10.0 uM
[16] = target: 5-hydroxytryptamine receptor 7 (Homo sapiens) (UniProt P34969); experiment: 5-Hydroxytryptamine7 (h) CEREP ligand profiling; details: Compound concentration 10.0 uM
Sequence of 5-hydroxytryptamine receptor 7 (Homo sapiens) (P34969 whole entry): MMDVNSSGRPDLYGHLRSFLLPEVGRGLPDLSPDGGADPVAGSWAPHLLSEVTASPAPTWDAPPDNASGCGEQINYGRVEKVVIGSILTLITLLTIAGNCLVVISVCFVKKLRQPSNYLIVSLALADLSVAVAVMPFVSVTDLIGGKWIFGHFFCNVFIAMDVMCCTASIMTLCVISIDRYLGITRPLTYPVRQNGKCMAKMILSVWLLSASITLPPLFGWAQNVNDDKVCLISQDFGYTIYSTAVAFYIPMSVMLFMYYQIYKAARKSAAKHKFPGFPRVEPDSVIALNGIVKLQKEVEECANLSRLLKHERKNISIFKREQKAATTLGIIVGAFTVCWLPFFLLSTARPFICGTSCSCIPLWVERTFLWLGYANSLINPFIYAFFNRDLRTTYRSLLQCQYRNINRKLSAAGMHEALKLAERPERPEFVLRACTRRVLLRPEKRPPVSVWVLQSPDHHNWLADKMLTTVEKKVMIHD

[17] = target: Platelet-derived growth factor receptor (Homo sapiens) (UniProt P09619+P16234); experiment: Platlet-derived growth factor receptor CEREP ligand profiling; assay type: protein-complex assay; details: Compound concentration 10.0 uM
[18] = target: D(2) dopamine receptor (Homo sapiens) (UniProt P14416); experiment: Dopamine D2 receptor (h) CEREP ligand profiling; details: Compound concentration 10.0 uM
[19] = GABA receptor (non-selective) CEREP ligand profiling; details: Compound concentration 10.0 uM
[20] = target: Endothelin receptor type B (Homo sapiens) (UniProt P24530); details: Compound concentration 10.0 uM
[21] = target: Tumor necrosis factor (Homo sapiens) (UniProt P01375); experiment: Tumor necrosis factor-alpha CEREP ligand profiling; details: Compound concentration 10.0 uM
Sequence of Tumor necrosis factor (Homo sapiens) (P01375 whole entry): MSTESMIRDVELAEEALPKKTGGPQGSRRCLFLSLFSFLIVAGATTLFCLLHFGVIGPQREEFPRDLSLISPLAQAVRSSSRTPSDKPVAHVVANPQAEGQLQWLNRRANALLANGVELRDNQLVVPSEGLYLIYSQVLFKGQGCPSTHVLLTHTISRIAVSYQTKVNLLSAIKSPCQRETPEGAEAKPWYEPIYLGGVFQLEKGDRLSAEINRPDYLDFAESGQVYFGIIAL

[22] = target: P2X receptor (Rattus norvegicus) (UniProt P51579+P49653+P51578+Q64663+P47824+P51577+P49654); experiment: P2X-purinergic receptor CEREP ligand profiling; assay type: protein assay; details: Compound concentration 10.0 uM
[23] = target: T1, Mu-type opioid receptor; experiment: mu-Opioid receptor (h) CEREP ligand profiling; details: Compound concentration 10.0 uM
[24] = target: Sodium-dependent noradrenaline transporter (Homo sapiens) (UniProt P23975); experiment: Norepinephrine uptake CEREP ligand profiling; details: Compound concentration 10.0 uM
[25] = target: Cholecystokinin receptor type A (Homo sapiens) (UniProt P32238); experiment: CholecystokininA receptor (h) CEREP ligand profiling; details: Compound concentration 10.0 uM
Sequence of Cholecystokinin receptor type A (Homo sapiens) (P32238 whole entry): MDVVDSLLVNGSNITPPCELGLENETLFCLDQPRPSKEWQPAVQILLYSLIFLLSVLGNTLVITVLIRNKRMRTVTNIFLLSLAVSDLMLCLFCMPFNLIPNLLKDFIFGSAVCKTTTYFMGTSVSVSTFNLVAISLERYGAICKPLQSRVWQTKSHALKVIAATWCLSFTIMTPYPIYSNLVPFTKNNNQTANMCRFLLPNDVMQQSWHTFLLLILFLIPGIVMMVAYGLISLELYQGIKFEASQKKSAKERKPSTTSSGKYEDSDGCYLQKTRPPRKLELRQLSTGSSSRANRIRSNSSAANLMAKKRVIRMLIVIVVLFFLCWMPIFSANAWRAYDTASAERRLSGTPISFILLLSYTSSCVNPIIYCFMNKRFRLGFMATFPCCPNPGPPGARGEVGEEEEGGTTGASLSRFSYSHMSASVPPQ

[26] = target: 5-hydroxytryptamine receptor 6 (Homo sapiens) (UniProt P50406); experiment: 5-Hydroxytryptamine6 (h) CEREP ligand profiling; details: Compound concentration 10.0 uM
Sequence of 5-hydroxytryptamine receptor 6 (Homo sapiens) (P50406 whole entry): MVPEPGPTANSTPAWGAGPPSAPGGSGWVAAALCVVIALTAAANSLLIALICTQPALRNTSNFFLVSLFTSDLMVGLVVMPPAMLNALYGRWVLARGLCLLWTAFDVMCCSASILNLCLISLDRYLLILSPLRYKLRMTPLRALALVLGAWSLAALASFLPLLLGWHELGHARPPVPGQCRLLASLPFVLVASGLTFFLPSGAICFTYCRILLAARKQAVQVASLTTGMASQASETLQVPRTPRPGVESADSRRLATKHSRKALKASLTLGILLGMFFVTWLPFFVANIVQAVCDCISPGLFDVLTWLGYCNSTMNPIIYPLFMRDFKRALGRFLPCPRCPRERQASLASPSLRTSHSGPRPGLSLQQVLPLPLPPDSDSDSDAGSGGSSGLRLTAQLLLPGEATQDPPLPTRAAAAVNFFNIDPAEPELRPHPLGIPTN

[27] = target: D(1A) dopamine receptor (Homo sapiens) (UniProt P21728); experiment: Dopamine D1 receptor (h) CEREP ligand profiling; details: Compound concentration 10.0 uM
[28] = target: 5-hydroxytryptamine receptor 2A (Homo sapiens) (UniProt P28223); experiment: 5-Hydroxytryptamine2A (h) CEREP ligand profiling; details: Compound concentration 10.0 uM
Sequence of 5-hydroxytryptamine receptor 2A (Homo sapiens) (P28223 whole entry): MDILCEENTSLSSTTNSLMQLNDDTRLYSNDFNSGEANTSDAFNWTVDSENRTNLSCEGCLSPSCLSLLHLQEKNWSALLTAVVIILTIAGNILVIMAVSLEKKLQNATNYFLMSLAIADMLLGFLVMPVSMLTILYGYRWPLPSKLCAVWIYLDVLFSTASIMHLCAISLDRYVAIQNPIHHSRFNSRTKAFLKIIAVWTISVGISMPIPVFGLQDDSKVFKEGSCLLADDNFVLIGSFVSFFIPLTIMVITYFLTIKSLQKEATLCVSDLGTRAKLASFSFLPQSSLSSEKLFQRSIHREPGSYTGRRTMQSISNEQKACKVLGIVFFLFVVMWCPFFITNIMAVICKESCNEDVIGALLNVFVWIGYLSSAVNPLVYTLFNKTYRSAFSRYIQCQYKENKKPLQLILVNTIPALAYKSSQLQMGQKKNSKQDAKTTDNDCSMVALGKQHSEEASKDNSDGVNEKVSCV

[29] = target: Adenosine receptor A2a (Homo sapiens) (UniProt P29274); experiment: Adenosine A 2A receptor (h) CEREP ligand profiling; details: Compound concentration 10.0 uM
[30] = target: Glutamate NMDA receptor (Rattus norvegicus) (UniProt P35439+Q00959+Q00960+Q00961+Q62645+Q8VHN2+Q9R1M7); experiment: PCP receptor CEREP ligand profiling; assay type: protein-complex assay; details: Compound concentration 10.0 uM
[31] = target: Beta-2 adrenergic receptor (Homo sapiens) (UniProt P07550); experiment: beta2-adrenoceptor (h) CEREP ligand profiling; details: Compound concentration 10.0 uM
[32] = target: B2 bradykinin receptor (Homo sapiens) (UniProt P30411); experiment: Bradykinin B2 receptor (h) CEREP ligand profiling; details: Compound concentration 10.0 uM
[33] = target: Neuromedin-K receptor (Homo sapiens) (UniProt P29371); experiment: NK3 tachykinin receptor (h) CEREP ligand profiling; details: Compound concentration 10.0 uM
[34] = target: Beta-1 adrenergic receptor (Homo sapiens) (UniProt P08588); experiment: beta1-adrenoceptor (h) CEREP ligand profiling; details: Compound concentration 10.0 uM
Sequence of Beta-1 adrenergic receptor (Homo sapiens) (P08588 whole entry, looked up): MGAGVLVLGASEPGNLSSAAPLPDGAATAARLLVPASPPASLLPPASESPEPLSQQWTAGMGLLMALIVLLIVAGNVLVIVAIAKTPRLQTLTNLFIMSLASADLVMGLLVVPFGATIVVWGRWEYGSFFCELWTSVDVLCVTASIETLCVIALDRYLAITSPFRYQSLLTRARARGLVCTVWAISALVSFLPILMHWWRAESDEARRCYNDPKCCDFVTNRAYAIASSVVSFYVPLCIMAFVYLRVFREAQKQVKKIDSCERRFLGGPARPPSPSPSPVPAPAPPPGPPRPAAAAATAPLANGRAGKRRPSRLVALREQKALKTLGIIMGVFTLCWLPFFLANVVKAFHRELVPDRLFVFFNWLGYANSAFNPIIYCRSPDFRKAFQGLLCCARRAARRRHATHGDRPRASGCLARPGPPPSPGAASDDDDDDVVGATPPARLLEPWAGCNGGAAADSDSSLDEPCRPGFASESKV

[35] = target: Muscarinic acetylcholine receptor M3 (Homo sapiens) (UniProt P20309); experiment: Muscarinic M3 receptors (h) CEREP ligand profiling; details: Compound concentration 10.0 uM
Sequence of Muscarinic acetylcholine receptor M3 (Homo sapiens) (P20309 whole entry, looked up): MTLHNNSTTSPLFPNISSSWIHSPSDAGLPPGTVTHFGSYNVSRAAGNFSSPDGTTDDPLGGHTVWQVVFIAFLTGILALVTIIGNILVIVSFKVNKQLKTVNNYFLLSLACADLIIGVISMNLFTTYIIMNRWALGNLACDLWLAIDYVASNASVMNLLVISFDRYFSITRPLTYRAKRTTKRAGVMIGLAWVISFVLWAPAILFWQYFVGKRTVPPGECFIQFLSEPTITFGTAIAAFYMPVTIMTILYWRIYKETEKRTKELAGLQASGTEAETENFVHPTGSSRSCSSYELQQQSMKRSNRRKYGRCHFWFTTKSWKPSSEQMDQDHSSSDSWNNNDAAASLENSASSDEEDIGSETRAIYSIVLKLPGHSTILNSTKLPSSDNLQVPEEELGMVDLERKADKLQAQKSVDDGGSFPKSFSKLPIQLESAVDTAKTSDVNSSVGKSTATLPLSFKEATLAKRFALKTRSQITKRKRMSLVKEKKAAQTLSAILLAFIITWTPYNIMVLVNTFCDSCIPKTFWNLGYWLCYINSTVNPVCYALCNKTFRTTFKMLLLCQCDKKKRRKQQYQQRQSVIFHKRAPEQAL

[36] = target: T2, D(4) dopamine receptor (Homo sapiens) (UniProt P21917); experiment: Dopamine D4 receptor (h) CEREP ligand profiling; details: Compound concentration 10.0 uM
T2 sequence (whole entry): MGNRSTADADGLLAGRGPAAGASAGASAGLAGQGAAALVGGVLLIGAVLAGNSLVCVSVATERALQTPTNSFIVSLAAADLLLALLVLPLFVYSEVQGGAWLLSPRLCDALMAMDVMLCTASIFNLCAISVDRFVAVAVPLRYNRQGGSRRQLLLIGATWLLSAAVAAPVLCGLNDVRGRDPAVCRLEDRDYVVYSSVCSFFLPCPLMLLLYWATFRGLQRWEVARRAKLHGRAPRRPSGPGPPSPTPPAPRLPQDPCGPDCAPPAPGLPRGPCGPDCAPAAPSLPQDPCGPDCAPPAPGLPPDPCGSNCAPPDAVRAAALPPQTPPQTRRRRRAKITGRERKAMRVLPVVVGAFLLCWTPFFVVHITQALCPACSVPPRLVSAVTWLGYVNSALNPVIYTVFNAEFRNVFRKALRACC

[37] = target: Vasopressin V1a receptor (Homo sapiens) (UniProt P37288); experiment: Vasopresine V1a receptor (h) CEREP ligand profiling; details: Compound concentration 10.0 uM
[38] = target: Histamine H2 receptor (Homo sapiens) (UniProt P25021); experiment: Histamine H2 receptor CEREP ligand profiling; details: Compound concentration 10.0 uM

Sequence of Beta-2 adrenergic receptor (Homo sapiens) (P07550 whole entry, looked up): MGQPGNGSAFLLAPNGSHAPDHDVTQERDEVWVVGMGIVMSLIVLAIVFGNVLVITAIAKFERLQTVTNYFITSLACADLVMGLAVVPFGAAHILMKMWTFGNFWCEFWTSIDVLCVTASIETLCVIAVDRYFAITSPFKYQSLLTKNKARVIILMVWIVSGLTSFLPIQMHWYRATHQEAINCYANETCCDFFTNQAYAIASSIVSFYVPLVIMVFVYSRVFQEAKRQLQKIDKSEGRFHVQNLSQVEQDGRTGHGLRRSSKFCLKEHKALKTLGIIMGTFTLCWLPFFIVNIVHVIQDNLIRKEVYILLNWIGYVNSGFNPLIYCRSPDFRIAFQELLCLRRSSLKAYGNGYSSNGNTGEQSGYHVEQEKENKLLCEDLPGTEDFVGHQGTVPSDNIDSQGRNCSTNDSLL

CCCCN(CCCC)C(=O)CN1C[C@@H](c2cc(OC)c3c(c2)OCO3)[C@H](C(=O)O)[C@H]1CC(C)(C)CCC [A-545]
inhibition [1]: -6.31% | Ki [2]: 5770 nM | inhibition [3]: 15.7% | Ki [4]: 189 nM | inhibition [5]: 19.1% | Ki ([6]; read-out: Ki): 2780 nM | Ki ([6]; read-out: pKi (converted)): 2820 nM | Ki [7]: 2780 nM | inhibition [8]: 38.5% | inhibition [9]: 1.1%

CCCCN(CCCC)C(=O)CN1C[C@H](c2cc(OC)c3c(c2)OCO3)[C@@H](C(=O)O)[C@@H]1CC(C)(C)CCC [ABT-546]
Ki [10]: 10000 nM | inhibition [11]: 11% | inhibition [12]: 18% | Kd [13]: > 10000 nM (not active) | inhibition [14]: < 10% | inhibition [15]: 23% | inhibition [16]: < 10% | inhibition [17]: < 10% | inhibition [18]: < 10% | inhibition [19]: < 10% | inhibition [20]: 56% | inhibition [21]: < 10% | inhibition [22]: 37% | inhibition [23]: 17% | inhibition [24]: < 10% | inhibition [25]: < 10% | inhibition [26]: < 10% | inhibition [27]: 14% | inhibition [28]: < 10% | inhibition [29]: < 10% | inhibition [30]: < 10% | inhibition [31]: < 10% | inhibition [32]: < 10% | inhibition [33]: < 10% | inhibition [34]: < 10% | inhibition [35]: < 10% | inhibition [36]: < 10% | inhibition [37]: < 10% | inhibition [38]: < 10%
